Reference: patent US20070134744A1, “Epothilone resistant cell lines” (priority 2000, published 2007)
Where a name gives a salt, the structure may show the parent alone. Read-outs that look alike come from different tables or passages of the source.

How the values were obtained:
[1] = tested on: KB-8511 cells; type: cell-based, human; conditions: for RF (resistance factor: IC50 resistant cell line / IC50 parental KB-31): KB-8511 (Colch selected), 72 hrs, average of three experiments; for resistance profile in words: KB-8511 vs parental KB-31
Description: (§1) Data in Table 4 are gathered according to the following methods: Cells (1×10^3) are seeded in 96-well plates and allowed to adhere for 24 hrs. Compounds are then added as two-fold serial dilutions and incubation continued for an additional 72 hrs. Cell numbers at the beginning and at the end of the experiment are estimated by methylene blue staining of cellular protein mass according to conventional methods. The net mass increase of vehicle-treated cells is set as 100% growth. The IC50 is determined as the drug concentration that leads to half-maximal growth inhibition compared to the control. The resistance factor (RF) for a particular drug is calculated by dividing the IC50 determined on the resistant cell line by that determined on the parental KB-31 cells. Data are presented as average±standard deviation (SD) of three separate experiments, except na=not applicable (n<3). Colchicine-selected KB-8511 cells overexpressing P-glycoprotein served as a reference for the classical multi-drug-resistant phenotype.

[2] = tested on: 297/C5/0 cells; type: cell-based, human; conditions: for RF (resistance factor: IC50 resistant cell line / IC50 parental KB-31): 297/C5/0 (EpoA selected), 72 hrs, average of three experiments; for resistance profile in words: 297/C5/0 vs parental KB-31
Description: (§2) Anti-proliferative assays are performed basically as described (Meyer et al., Int. J. Cancer 43:851 (1989)). Briefly, cells are seeded at 1.5×10^3 cells/well into 96-well microtiter plates and allowed to adhere by incubation overnight. Compounds are added in serial dilutions on day 1. The plates are then incubated for an additional 3 days, after which the cells are fixed with 3.3% v/v glutaraldehyde, washed with water and stained with 0.05% w/v methylene blue according to conventional methods. After washing, the dye is eluted with 3% HCl and the optical density measured at 665 nm with a SpectraMax Plus (Molecular Devices, Sunnyvale, Calif.) according to manufacturers instructions. IC50 values are determined by mathematical curve-fitting using the SoftPro2.6.1 program (Molecular Devices, Sunnyvale, Calif.) using the formula (OD treated−OD start)/(OD control−OD start)×100. […] IC50 determinations with the cell line 298/D4/40 are performed in the presence of 40 nM epothilone A.
as §1

[3] = tested on: 298/D4/40 cells; type: cell-based, human; conditions: for RF (resistance factor: IC50 resistant cell line / IC50 parental KB-31): 298/D4/40 (EpoA selected), 72 hrs, in the presence of 40 nM epothilone A; for resistance profile in words: 298/D4/40 vs parental KB-31
Description: as §2, §1

[4] = tested on: 315/sc5.9 cells; type: cell-based, human; conditions: for RF (resistance factor: IC50 resistant cell line / IC50 parental KB-31): 315/sc5.9 (EpoB selected), 72 hrs, average of three experiments; for resistance profile in words: 315/sc5.9 vs parental KB-31
Description: as §2, §1

[5] = tested on: MDA-MB-435 cells; assay: MTS growth inhibition assay; type: cell-based; conditions: Homo sapiens, P-gp substrates, Table 2
Description: (§3) Growth inhibition may be analyzed using conventional methods, for example a MTS assay (PROMEGA, Wis.) may be used. In this assay approximately 4000 cells per well are seeded in 96 well plates in MEM supplemented with 10% fetal calf serum and incubated at 37° C. in 5.0% CO2. After 24 hours, dilutions of drug (concentration range used is between 1 nM and 1000 nM) are added and cells are allowed to incubate with drug for an additional 72 hours. The MTS reagent mixed with PMS (MTS:PMS 20:1 according to manufacturer's instructions) is then added and absorbance quantitated using a Thermomax microplate reader system according to conventional methods (Molecular Devices, Sunnyvale, Calif.). […] Six assays per drug per plate are performed.
Thus, at least two potential mechanisms of epothilone A resistance may exist—a lower resistance mechanism that is cross-resistant to TAXOL® and a higher, epothilone A specific resistance mechanism.

[6] = tested on: EA40 cells; assay: MTS growth inhibition assay; type: cell-based; conditions: for IC50: EA40 cells, P-gp substrates, Table 2; for resistance profile in words: EA40 vs MDA-MB-435 / EA150
Description: as §3, with “performed. […]” for “performed.”
(§4) As such, epothilone resistant cells would have some degree of cross-resistance to other P-gp substrates that could be reversed by P-gp inhibitors. To investigate this possibility, the cytotoxicity of the P-gp substrates, vincristine, doxorubicine and vinblastine is determined against epothilone A resistant cells using the MTS assay. […] When EA20 and resistant MDA/T0.3 cells are incubated with TAXOL® or epothilone A in the presence of [3′-Desoxy-3′-oxo-MeBmt]^1-[Val]^2-Ciclosporin (PSC-833; a P-gp inhibitor which is disclosed in U.S. Pat. No. 5,525,590), the resistance of MDA/T0.3 cells to TAXOL® is reversed but no effect on the resistance of EA20 to epothilone A is observed.

[7] = tested on: MDA/T0.3 cells; assay: MTS growth inhibition assay; type: cell-based
Description: as §3, with “After 24 hours, dilutions of drug (concentration range used is between 1 nM and 1000 nM) are added and cells are allowed to incubate with drug for an additional 72 hours.” left out
as §4
MDA/T0.3 is a clonal subline of MDA-MB-435 cells selected by increasing exposure of MDA-MB-435 cells to TAXOL®. MDA/T0.3 cells express high levels of P-glycoprotein and are resistant to a variety of chemically and functionally unrelated compounds. MDA/T0.3 cells could be sensitized to a variety of cytotoxic agents by treatment with the P-glycoprotein reversing agent PSC-833.

[8] = MDA/T0.3 cells, P-gp substrates, Table 2, read-out: IC50

Row | IC50 [5] | SMILES | RF (resistance factor: IC50 resistant cell line / IC50 parental KB-31) [1] | RF (resistance factor: IC50 resistant cell line / IC50 parental KB-31) [2] | resistance profile in words [2] | RF (resistance factor: IC50 resistant cell line / IC50 parental KB-31) [3] | resistance profile in words [3] | RF (resistance factor: IC50 resistant cell line / IC50 parental KB-31) [4] | resistance profile in words [4] | IC50 [6] | IC50 [7] | resistance profile in words [1] | resistance profile in words [6] | IC50 [7, 8]
1 |  | O=c1[nH]cc(F)c(=O)[nH]1 [5-FU, 5-Fluorouracil] | 1.1 | 1.2 | Neither cell line is cross-resistant | 0.9 | Neither cell line is cross-resistant | 0.4 | slightly hypersensitive |  |  |  |  | 
2 |  | CN[C@H]1CCc2cc(OC)c(OC)c(OC)c2-c2ccc(OC)c(=O)cc21 [Demecolcine, demecolcine] |  |  | hypersensitive |  | hypersensitive |  | slightly hypersensitive |  |  | resistant |  | 
3 |  | C=C/C=C\[C@H](C)[C@H](OC(N)=O)[C@@H](C)[C@H](O)[C@@H](C)C/C(C)=C\[C@H](C)[C@@H](O)[C@@H](C)/C=C\[C@@H](O)C[C@@H]1OC(=O)[C@H](C)[C@@H](O)[C@H]1C [Discodermolide] | 2.8 | 1.3 | not cross-resistant | 0.5 | not cross-resistant | 1.2 |  |  |  |  |  | 
4 | > 500 nM | COc1cccc2c1C(=O)c1c(O)c3c(c(O)c1C2=O)C[C@@](O)(C(=O)CO)C[C@@H]3O[C@H]1C[C@H](N)[C@H](O)[C@H](C)O1 [Doxorubicin, doxorubicin] | 48.8 | 1.6 | Neither cell line is cross-resistant | 1.2 | Neither cell line is cross-resistant | 1.8 | marginal cross-resistance | 365 ± 200 nM |  | resistant | equally sensitive | > 5000 nM
5 |  | [NH2][Pt]1([NH2])[O]C(=O)C2(CCC2)C(=O)[O]1 [Paraplatine, Paraplatin] | 0.8 | 1.2 | Neither cell line is cross-resistant | 3.8 | very minor increase in the resistance | 0.7 |  |  |  |  |  | 
6 | < 1 nM | CC[C@]1(O)C[C@@H]2CN(CCc3c([nH]c4ccccc34)[C@@](C(=O)OC)(c3cc4c(cc3OC)N(C)[C@H]3[C@@](O)(C(=O)OC)[C@H](OC(C)=O)[C@]5(CC)C=CCN6CC[C@]43[C@@H]65)C2)C1 [Vinblastine, Vinblastine sulfate] | 162.4 | 0.7 | hypersensitive | 0.2 | hypersensitive | 0.6 |  | < 1 nM |  | resistant | equally sensitive | 14 ± 2.7 nM
7 | 3 ± 2 nM | CC[C@]1(O)C[C@H]2CN(CCc3c([nH]c4ccccc34)[C@@](C(=O)OC)(c3cc4c(cc3OC)N(C=O)[C@H]3[C@@](O)(C(=O)OC)[C@H](OC(C)=O)[C@]5(CC)C=CCN6CC[C@]43[C@@H]65)C2)C1 [Vincristine, vincristine] |  |  |  |  |  |  | slightly hypersensitive | 4 ± 1.7 nM |  |  | equally sensitive | 

Row | SMILES | IC50 [5] | RF (resistance factor: IC50 resistant cell line / IC50 parental KB-31) [1] | RF (resistance factor: IC50 resistant cell line / IC50 parental KB-31) [2] | resistance profile in words [2] | RF (resistance factor: IC50 resistant cell line / IC50 parental KB-31) [3] | resistance profile in words [3] | RF (resistance factor: IC50 resistant cell line / IC50 parental KB-31) [4] | resistance profile in words [4] | IC50 [6] | IC50 [7] | resistance profile in words [1] | resistance profile in words [6] | IC50 [7, 8]
8 | COc1cccc2c1C(=O)c1c(O)c3c(c(O)c1C2=O)C[C@@](O)(C(C)=O)C[C@@H]3O[C@H]1C[C@H](N)[C@H](O)[C@H](C)O1 [Daunorubicin] | 382 ± 101 nM |  |  |  |  |  |  |  | 224 ± 72 nM | > 5000 nM |  |  | 
